Assay results as given in ChEMBL document CHEMBL4177650, “Synthesis and biological evolution of hydrazones derived from 4-(trifluoromethyl)benzohydrazide” (Bioorg Med Chem Lett, 2017).
Converted amounts (≈) assume the structure as drawn. The source made the active and inactive calls. No cut-off for these calls is given here.

Tests used:
[1] = Solubility of the compound in Mueller-Hinton broth; assay type: physicochemical
Klebsiella pneumoniae [2] = assay: Antibacterial activity against extended spectrum beta-lactamase-positive Klebsiella pneumoniae J 14368/08 after 24 to 48 hrs by microdilution broth method; assay type: functional, organism-based
Mycobacterium kansasii [3] = assay: Antimycobacterial activity against Mycobacterium kansasii 6509/96 after 7 days by micromethod; assay type: functional; conditions: 6509/96, 168 h
Mycobacterium kansasii [4] = assay: Antimycobacterial activity against Mycobacterium kansasii 6509/96 after 14 days by micromethod; assay type: functional; conditions: 6509/96, 336 h
Mycobacterium avium [5] = assay: Antimycobacterial activity against Mycobacterium avium 330/88 after 21 days by micromethod; assay type: functional; conditions: 330/88, 504 h
Mycobacterium avium [6] = assay: Antimycobacterial activity against Mycobacterium avium 330/88 after 14 days by micromethod; assay type: functional; conditions: 330/88, 336 h
Mycobacterium kansasii [7] = assay: Antimycobacterial activity against Mycobacterium kansasii 6509/96 after 21 days by micromethod; assay type: functional; conditions: 6509/96, 504 h
[8] = test system: Mycobacterium tuberculosis; assay: Antimycobacterial activity against Mycobacterium tuberculosis H37Rv 331/88 after 21 days by micromethod; assay type: functional; conditions: H37Rv 331/88, 504 h
Mycobacterium kansasii [9] = assay: Antimycobacterial activity against Mycobacterium kansasii 6509/80 after 14 days by micromethod; assay type: functional; conditions: 6509/80, 336 h
Candida albicans = assay: Antifungal activity against Candida albicans ATCC 44859 after 24 to 48 hrs by microdilution broth method; assay type: functional, organism-based
Trichosporon asahii = assay: Antifungal activity against Trichosporon asahii 1188 after 24 to 48 hrs by microdilution broth method; assay type: functional, organism-based
Mycobacterium kansasii [10] = assay: Antimycobacterial activity against Mycobacterium kansasii 6509/80 after 21 days by micromethod; assay type: functional; conditions: 6509/80, 504 h
Lichtheimia corymbifera = assay: Antifungal activity against Absidia corymbifera 272 after 24 to 48 hrs by microdilution broth method; assay type: functional, organism-based
Aspergillus fumigatus = assay: Antifungal activity against Aspergillus fumigatus 231 after 24 to 48 hrs by microdilution broth method; assay type: functional, organism-based
Klebsiella pneumoniae [11] = assay: Antibacterial activity against gram-negative Klebsiella pneumoniae D 11750/08 after 24 to 48 hrs by microdilution broth method; assay type: functional, organism-based
Mycobacterium kansasii [12] = assay: Antimycobacterial activity against Mycobacterium kansasii 6509/80 after 7 days by micromethod; assay type: functional; conditions: 6509/80, 168 h
Pseudomonas aeruginosa = assay: Antibacterial activity against gram-negative Pseudomonas aeruginosa CCM 1961 after 48 hrs by microdilution broth method; assay type: functional, organism-based
[13] = test system: Mycobacterium tuberculosis; assay: Antimycobacterial activity against Mycobacterium tuberculosis H37Rv 331/88 after 14 days by micromethod; assay type: functional; conditions: H37Rv 331/88, 336 h
Staphylococcus aureus [14] = assay: Antibacterial activity against gram-positive methicillin-resistant Staphylococcus aureus H 5996/08 after 24 hrs by microdilution broth method; assay type: functional; conditions: H 5996/08, 24 h
Candida tropicalis [15] = assay: Antifungal activity against Candida tropicalis 156 after 48 hrs by microdilution broth method; assay type: functional; conditions: Candida tropicalis, 156, 48 h
Pichia kudriavzevii [16] = assay: Antifungal activity against Candida krusei E28 after 48 hrs by microdilution broth method; assay type: functional; conditions: E28, 48 h
Nakaseomyces glabratus [17] = assay: Antifungal activity against Candida glabrata 20/I after 48 hrs by microdilution broth method; assay type: functional
Staphylococcus aureus [18] = assay: Antibacterial activity against gram-positive methicillin-resistant Staphylococcus aureus H 5996/08 after 48 hrs by microdilution broth method; assay type: functional; conditions: H 5996/08, 48 h
Staphylococcus aureus [19] = assay: Antibacterial activity against gram-positive Staphylococcus aureus CCM 4516/08 after 48 hrs by microdilution broth method; assay type: functional; conditions: CCM 4516/08, 48 h
Escherichia coli [20] = assay: Antibacterial activity against gram-negative Escherichia coli CCM 4517 after 24 hrs by microdilution broth method; assay type: functional; conditions: CCM 4517, 24 h
[21] = test system: Staphylococcus epidermidis; assay: Antibacterial activity against gram-positive Staphylococcus epidermidis H 6966/08 after 24 hrs by microdilution broth method; assay type: functional; conditions: H 6966/08, 24 h
Enterococcus faecalis [22] = assay: Antibacterial activity against gram-positive Enterococcus faecalis J 14365/08 after 24 hrs by microdilution broth method; assay type: functional; conditions: J 14365/08, 24 h
Candida tropicalis [23] = assay: Antifungal activity against Candida tropicalis 156 after 24 hrs by microdilution broth method; assay type: functional; conditions: Candida tropicalis, 156, 24 h
[24] = test system: Trichophyton mentagrophytes; assay: Antifungal activity against Trichophyton mentagrophytes 445 after 72 hrs by microdilution broth method; assay type: functional; conditions: Trichophyton mentagrophytes, 445, 72 h
[25] = test system: Trichophyton mentagrophytes; assay: Antifungal activity against Trichophyton mentagrophytes 445 after 120 hrs by microdilution broth method; assay type: functional; conditions: Trichophyton mentagrophytes, 445, 120 h
Enterococcus faecalis [26] = assay: Antibacterial activity against gram-positive Enterococcus faecalis J 14365/08 after 48 hrs by microdilution broth method; assay type: functional; conditions: J 14365/08, 48 h
Staphylococcus aureus [27] = assay: Antibacterial activity against gram-positive Staphylococcus aureus CCM 4516/08 after 24 hrs by microdilution broth method; assay type: functional; conditions: CCM 4516/08, 24 h
[28] = test system: Staphylococcus epidermidis; assay: Antibacterial activity against gram-positive Staphylococcus epidermidis H 6966/08 after 48 hrs by microdilution broth method; assay type: functional; conditions: H 6966/08, 48 h
Nakaseomyces glabratus [29] = assay: Antifungal activity against Candida glabrata 20/I after 24 hrs by microdilution broth method; assay type: functional
Escherichia coli [30] = assay: Antibacterial activity against gram-negative Escherichia coli CCM 4517 after 48 hrs by microdilution broth method; assay type: functional; conditions: CCM 4517, 48 h
Pichia kudriavzevii [31] = assay: Antifungal activity against Candida krusei E28 after 24 hrs by microdilution broth method; assay type: functional; conditions: E28, 24 h

Row | SMILES | Activity (Klebsiella pneumoniae [2]) | MIC (Mycobacterium kansasii [3]) [µM] | MIC (Mycobacterium kansasii [4]) [µM] | MIC (Mycobacterium avium [5]) [µM] | MIC (Mycobacterium avium [6]) [µM] | MIC (Mycobacterium kansasii [7]) [µM] | MIC [8] [µM] | MIC (Mycobacterium kansasii [9]) [µM] | Activity (Candida albicans) | Activity (Trichosporon asahii) | MIC (Mycobacterium kansasii [10]) [µM] | Activity (Lichtheimia corymbifera) | Activity (Aspergillus fumigatus) | Activity (Klebsiella pneumoniae [11]) | MIC (Mycobacterium kansasii [12]) [µM] | Activity (Pseudomonas aeruginosa) | MIC [13] [µM] | other results
1 | O=C(N/N=C/c1ccc(Br)cc1)c1ccc(C(F)(F)F)cc1 |  |  |  |  |  |  |  |  |  |  |  |  |  |  |  |  |  | solubility [1]: Insoluble
2 | O=C(N/N=C/c1cccc(O)c1)c1ccc(C(F)(F)F)cc1 | inactive | 250 (≈ 77.1 µg/mL) | 500 (≈ 154 µg/mL) | 250 (≈ 77.1 µg/mL) | 250 (≈ 77.1 µg/mL) | 500 (≈ 154 µg/mL) | 250 (≈ 77.1 µg/mL) | 125 (≈ 38.5 µg/mL) | inactive | inactive | 250 (≈ 77.1 µg/mL) | inactive | inactive | inactive | 62.5 (≈ 19.3 µg/mL) | inactive | 250 (≈ 77.1 µg/mL) | 
3 | NNC(=O)c1ccc(C(F)(F)F)cc1 |  | > 250 | > 250 | > 500 | > 500 | > 250 | 500 (≈ 102 µg/mL) | > 250 |  |  | > 250 |  |  |  | > 250 |  | 250 (≈ 51 µg/mL) | MIC (Staphylococcus aureus [14]): > 500 µM; MIC (Candida tropicalis [15]): > 500 µM; MIC (Pichia kudriavzevii [16]): > 500 µM; MIC (Nakaseomyces glabratus [17]): > 500 µM; MIC (Staphylococcus aureus [18]): > 500 µM; MIC (Staphylococcus aureus [19]): > 500 µM; MIC (Escherichia coli [20]): > 500 µM; MIC [21]: > 500 µM; MIC (Enterococcus faecalis [22]): > 500 µM; MIC (Candida tropicalis [23]): > 500 µM; MIC [24]: > 500 µM; MIC [25]: > 500 µM; MIC (Enterococcus faecalis [26]): > 500 µM; MIC (Staphylococcus aureus [27]): > 500 µM; MIC [28]: > 500 µM; MIC (Nakaseomyces glabratus [29]): > 500 µM; MIC (Escherichia coli [30]): > 500 µM; MIC (Pichia kudriavzevii [31]): > 500 µM
4 | NNC(=O)c1ccncc1 [ISONIAZID] |  | 8 (≈ 1.1 µg/mL) | 8 (≈ 1.1 µg/mL) | > 250 | > 250 | 8 (≈ 1.1 µg/mL) | 1 (≈ 0.137 µg/mL) | > 250 |  |  | > 250 |  |  |  | > 250 |  | 0.5 (≈ 0.0686 µg/mL) | 
5 | O=C(N/N=C/c1cccc(Cl)c1)c1ccc(C(F)(F)F)cc1 | inactive | > 125 | > 125 | > 125 | > 125 | > 125 | > 125 | > 125 | inactive | inactive | > 125 | inactive | inactive | inactive | 125 (≈ 40.8 µg/mL) | inactive | > 125 | 
6 | O=C(NN=C1CCCC1)c1ccc(C(F)(F)F)cc1 |  | 500 (≈ 135 µg/mL) | 1000 (≈ 270 µg/mL) | > 125 | > 125 | 1000 (≈ 270 µg/mL) | 500 (≈ 135 µg/mL) | > 1000 |  |  | > 1000 |  |  |  | 500 (≈ 135 µg/mL) |  | 500 (≈ 135 µg/mL) | 
